From patent US20250353864A1, “INDAZOLE CONTAINING MACROCYCLES AND THEIR USE” (BLOSSOMHILL THERAPEUTICS, INC., priority 2022, published 2025)

Key:
Type in all cases: biochemical
EGFR Δ746-750 mutant = EGFR Δ746-750 mutant (Homo sapiens (Human), UniProt P00533, DEL746-750); test: HotSpot radiometric kinase assay, EGFR Δ746-750 mutant; conditions: 10 μM ATP
Method in brief: (§1)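 Radiometric filter-binding read-out: incorporated 33P was retained on P81 ion-exchange paper after washing away unbound phosphate. Reactions ran 120 min at room temperature with 10 μM final ATP, following ~20 min compound preincubation in Hepes pH 7.5 buffer containing 1% DMSO. IC50 from fitted curves.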

CLK1 = CLK1 (Homo sapiens (Human), UniProt P49759); test: Inhibition of CLK1 kinase activity evaluated at Nanosyn (ADP-Glo); conditions: ADP-Glo luminescence
Description: (§2) Inhibition of CLK, CLK2, CLK3 and CLK4 Kinase Activity Evaluated at Nanosyn
(§3) Kinase protein and substrate were pre-diluted in the HEPES assay buffer (100 mM HEPES, pH 7.5, 0.01% Triton X-100, 0.1% BSA, 5 mM MgCl2, […] DTT, 10 Sodium Orthovanadate, […] Beta-Glycerophosphate) dispensed into 384 well plate (5 μL per well). Control samples (0%-inhibition in the absence of inhibitor, DMSO only) and 100%-inhibition (in the absence of enzyme) were assembled in replicates of six and were used to calculate %-inhibition in the presence of compounds. Test compounds were added to the protein samples by acoustic dispensing (Labcyte Echo550). Concentration of DMSO was equalized to 1% in all samples. Reactions were initiated by addition of ATP by acoustic dispensing (Labcyte Echo550) and incubated according to assay specific incubation time. After incubation. 5 μL of Promega ADP-Glo reagent was added and incubated for 40 minutes. After 40 minutes, 10 uL of Promega kinase detection reagent was added. After 10 min of incubation with Kinase detection reagent, the luminescence was read on microplate reader (Biotek Synergy).

EGFR WT = EGFR WT (Homo sapiens (Human), UniProt P00533); test: HotSpot radiometric kinase assay (Reaction Biology), EGFR WT; conditions: 10 μM ATP
Sequence of EGFR WT (P00533 25-1210): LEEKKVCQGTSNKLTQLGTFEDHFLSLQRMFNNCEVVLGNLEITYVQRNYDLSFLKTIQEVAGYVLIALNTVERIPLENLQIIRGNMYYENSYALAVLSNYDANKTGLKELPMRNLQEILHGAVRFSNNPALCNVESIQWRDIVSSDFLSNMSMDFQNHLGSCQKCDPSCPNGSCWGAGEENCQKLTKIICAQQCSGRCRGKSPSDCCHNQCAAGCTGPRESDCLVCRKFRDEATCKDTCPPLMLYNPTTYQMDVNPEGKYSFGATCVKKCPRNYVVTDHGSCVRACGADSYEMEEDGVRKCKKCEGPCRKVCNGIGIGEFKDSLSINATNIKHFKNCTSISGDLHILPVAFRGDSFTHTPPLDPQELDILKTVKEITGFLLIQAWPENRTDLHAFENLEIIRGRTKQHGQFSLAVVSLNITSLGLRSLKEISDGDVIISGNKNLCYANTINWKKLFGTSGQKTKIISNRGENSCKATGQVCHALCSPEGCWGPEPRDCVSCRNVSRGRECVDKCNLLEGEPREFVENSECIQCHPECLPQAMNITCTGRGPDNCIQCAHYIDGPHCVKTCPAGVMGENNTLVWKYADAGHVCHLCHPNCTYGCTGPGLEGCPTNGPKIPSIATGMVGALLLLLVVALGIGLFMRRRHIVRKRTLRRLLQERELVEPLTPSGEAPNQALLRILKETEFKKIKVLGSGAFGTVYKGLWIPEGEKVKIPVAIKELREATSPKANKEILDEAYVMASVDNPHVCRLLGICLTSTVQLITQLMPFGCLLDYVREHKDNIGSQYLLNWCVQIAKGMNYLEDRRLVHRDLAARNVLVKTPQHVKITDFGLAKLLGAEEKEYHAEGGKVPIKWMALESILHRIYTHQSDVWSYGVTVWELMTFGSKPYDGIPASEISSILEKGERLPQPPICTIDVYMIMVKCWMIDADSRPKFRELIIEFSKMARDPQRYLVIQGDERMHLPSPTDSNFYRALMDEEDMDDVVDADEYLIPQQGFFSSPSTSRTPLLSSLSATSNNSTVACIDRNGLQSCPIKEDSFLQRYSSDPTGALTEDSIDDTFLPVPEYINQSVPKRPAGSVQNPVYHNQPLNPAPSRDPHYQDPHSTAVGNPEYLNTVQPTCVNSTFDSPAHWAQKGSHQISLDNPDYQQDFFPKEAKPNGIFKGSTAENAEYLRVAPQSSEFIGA
Method in brief: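 Kinase, substrate and cofactors are mixed in 20 mM Hepes pH 7.5 with 10 mM MgCl2, 1 mM EGTA, 2 mM DTT and 1% DMSO. Compound is added, and about 20 min later ATP/33P-ATP (10 μM final) starts a 120-min room-temperature reaction, which is then spotted onto P81 paper.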

[1] = target: EGFR Δ746-750/C797S mutant (Homo sapiens (Human), UniProt P00533, C797S/DEL746-750); test: HotSpot radiometric kinase assay, EGFR Δ746-750/C797S mutant; conditions: 10 μM ATP
Method in brief: as §1

EGFR (D770_N771insNPG) = EGFR (D770_N771insNPG) (Homo sapiens (Human), UniProt P00533, INS770NPG); test: HotSpot radiometric kinase assay, EGFR (D770_N771insNPG); conditions: 10 μM ATP, read-out: EGFR (Δ770_N771insNPG) IC50
Sequence of EGFR (D770_N771insNPG) (P00533 other isoform, or with tags, fused parts or gaps del 1-668/ins NPG behind 770 limits assumed): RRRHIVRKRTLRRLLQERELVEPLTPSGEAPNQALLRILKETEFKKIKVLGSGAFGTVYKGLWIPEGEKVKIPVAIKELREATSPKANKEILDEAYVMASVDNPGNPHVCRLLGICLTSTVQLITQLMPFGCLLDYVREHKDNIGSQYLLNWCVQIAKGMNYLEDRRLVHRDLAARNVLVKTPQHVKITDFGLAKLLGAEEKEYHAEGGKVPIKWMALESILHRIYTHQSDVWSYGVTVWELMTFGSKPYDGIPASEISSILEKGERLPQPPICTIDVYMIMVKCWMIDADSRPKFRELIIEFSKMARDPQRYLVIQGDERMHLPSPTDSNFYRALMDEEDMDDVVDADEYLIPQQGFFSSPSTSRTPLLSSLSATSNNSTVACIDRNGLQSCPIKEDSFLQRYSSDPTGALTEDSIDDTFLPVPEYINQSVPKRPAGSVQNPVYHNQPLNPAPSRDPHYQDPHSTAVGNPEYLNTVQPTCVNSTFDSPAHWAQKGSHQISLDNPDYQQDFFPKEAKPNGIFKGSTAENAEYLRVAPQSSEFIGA
Method in brief: as §1

EGFR L858R/T790M mutant = EGFR L858R/T790M mutant (Homo sapiens (Human), UniProt P00533, L858R/T790M); test: HotSpot radiometric kinase assay, EGFR L858R/T790M mutant; conditions: 10 μM ATP
Method in brief: as §1

CLK4 = CLK4 (Homo sapiens (Human), UniProt Q9HAZ1); test: Inhibition of CLK4 kinase activity evaluated at Nanosyn (ADP-Glo); conditions: ADP-Glo luminescence
Sequence of CLK4 (Q9HAZ1 whole entry): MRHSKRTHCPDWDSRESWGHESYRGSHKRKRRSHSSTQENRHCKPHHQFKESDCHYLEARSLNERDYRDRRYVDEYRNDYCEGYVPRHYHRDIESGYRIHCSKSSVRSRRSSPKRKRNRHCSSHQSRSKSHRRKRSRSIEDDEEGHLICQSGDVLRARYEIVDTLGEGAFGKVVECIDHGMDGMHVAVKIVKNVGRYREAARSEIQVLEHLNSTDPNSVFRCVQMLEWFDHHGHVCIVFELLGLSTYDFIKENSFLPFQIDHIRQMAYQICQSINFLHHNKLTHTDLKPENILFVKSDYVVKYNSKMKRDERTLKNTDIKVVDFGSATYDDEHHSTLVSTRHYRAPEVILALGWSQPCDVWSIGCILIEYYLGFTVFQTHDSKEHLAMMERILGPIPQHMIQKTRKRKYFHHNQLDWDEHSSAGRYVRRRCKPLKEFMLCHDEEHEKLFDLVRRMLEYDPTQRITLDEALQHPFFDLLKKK
Description: as §2, §3

CLK2 = CLK2 (Homo sapiens (Human), UniProt P49760); test: Inhibition of CLK2 kinase activity evaluated at Nanosyn (ADP-Glo); conditions: ADP-Glo luminescence
Sequence of CLK2 (P49760 whole entry): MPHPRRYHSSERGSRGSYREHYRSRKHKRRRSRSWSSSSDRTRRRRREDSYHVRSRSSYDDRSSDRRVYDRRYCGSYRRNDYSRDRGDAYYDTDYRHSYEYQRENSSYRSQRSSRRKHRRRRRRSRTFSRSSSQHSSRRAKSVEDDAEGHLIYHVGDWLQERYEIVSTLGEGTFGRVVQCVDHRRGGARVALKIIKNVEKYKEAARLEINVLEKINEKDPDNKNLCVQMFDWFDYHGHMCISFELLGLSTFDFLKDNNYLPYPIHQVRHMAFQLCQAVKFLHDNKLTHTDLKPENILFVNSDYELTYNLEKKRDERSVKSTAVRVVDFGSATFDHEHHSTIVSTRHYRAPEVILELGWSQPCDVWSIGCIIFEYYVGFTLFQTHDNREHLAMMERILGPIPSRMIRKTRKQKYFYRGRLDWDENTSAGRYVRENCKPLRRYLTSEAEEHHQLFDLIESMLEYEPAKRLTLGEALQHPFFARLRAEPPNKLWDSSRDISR
Description: as §2, §3

EGFR L858R mutant = EGFR L858R mutant (Homo sapiens (Human), UniProt P00533, L858R); test: HotSpot radiometric kinase assay, EGFR L858R mutant; conditions: 10 μM ATP
Method in brief: as §1

CLK3 = CLK3 (Homo sapiens (Human), UniProt P49761); test: Inhibition of CLK3 kinase activity evaluated at Nanosyn (ADP-Glo); conditions: ADP-Glo luminescence
Sequence of CLK3 (P49761 whole entry): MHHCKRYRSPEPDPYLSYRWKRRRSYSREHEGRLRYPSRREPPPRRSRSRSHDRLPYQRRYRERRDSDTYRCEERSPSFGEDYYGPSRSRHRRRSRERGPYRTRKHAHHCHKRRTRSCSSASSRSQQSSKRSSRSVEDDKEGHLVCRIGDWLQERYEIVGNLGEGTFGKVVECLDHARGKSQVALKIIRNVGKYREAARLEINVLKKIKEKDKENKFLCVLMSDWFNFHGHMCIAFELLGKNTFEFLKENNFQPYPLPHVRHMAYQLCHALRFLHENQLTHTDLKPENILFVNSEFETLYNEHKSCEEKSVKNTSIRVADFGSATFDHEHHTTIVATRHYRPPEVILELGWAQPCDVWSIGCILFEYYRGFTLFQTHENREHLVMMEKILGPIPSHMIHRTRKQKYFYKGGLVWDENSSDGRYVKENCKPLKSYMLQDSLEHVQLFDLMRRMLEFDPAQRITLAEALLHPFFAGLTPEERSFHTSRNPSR
Description: as §2, §3

[2] = target: EGFR L858R/T790M/C797S mutant (Homo sapiens (Human), UniProt P00533, C797S/L858R/T790M); test: HotSpot radiometric kinase assay, EGFR L858R/T790M/C797S mutant; conditions: 10 μM ATP
Sequence of EGFR L858R/T790M/C797S mutant (P00533 25-1210 T790M/C797S/L858R): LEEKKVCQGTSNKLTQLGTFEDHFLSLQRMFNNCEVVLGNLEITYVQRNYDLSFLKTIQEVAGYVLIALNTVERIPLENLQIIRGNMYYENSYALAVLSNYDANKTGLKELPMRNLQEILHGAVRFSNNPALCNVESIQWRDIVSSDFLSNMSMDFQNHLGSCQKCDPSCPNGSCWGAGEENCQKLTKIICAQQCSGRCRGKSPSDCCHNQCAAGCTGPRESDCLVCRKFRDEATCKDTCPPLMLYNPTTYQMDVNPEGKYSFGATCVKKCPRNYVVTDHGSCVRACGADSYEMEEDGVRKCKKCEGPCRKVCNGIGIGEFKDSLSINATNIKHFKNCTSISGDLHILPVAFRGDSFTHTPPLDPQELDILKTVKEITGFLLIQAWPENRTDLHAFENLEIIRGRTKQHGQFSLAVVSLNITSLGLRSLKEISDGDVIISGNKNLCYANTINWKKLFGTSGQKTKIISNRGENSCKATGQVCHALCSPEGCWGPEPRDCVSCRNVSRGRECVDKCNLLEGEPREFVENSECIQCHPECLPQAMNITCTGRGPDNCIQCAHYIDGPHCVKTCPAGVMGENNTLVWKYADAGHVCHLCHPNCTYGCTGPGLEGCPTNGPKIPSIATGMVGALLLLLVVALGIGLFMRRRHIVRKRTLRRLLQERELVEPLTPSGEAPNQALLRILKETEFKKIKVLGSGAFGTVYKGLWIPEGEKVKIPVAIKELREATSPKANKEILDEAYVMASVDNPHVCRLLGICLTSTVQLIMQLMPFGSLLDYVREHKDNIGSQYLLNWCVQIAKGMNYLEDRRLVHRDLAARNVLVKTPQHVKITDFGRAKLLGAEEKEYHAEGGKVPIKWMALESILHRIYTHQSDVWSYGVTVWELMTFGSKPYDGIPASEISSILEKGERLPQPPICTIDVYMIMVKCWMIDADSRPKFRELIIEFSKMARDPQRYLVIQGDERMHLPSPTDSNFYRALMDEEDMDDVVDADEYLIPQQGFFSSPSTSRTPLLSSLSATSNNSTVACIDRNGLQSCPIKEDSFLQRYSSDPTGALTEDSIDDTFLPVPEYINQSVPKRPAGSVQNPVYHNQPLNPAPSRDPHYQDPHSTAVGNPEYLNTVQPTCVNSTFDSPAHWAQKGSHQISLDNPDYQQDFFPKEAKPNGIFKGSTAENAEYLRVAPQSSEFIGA
Method in brief: as §1

Sequence of EGFR Δ746-750 mutant (P00533 other isoform, or with tags, fused parts or gaps del 1-668/del 746-750 limits assumed): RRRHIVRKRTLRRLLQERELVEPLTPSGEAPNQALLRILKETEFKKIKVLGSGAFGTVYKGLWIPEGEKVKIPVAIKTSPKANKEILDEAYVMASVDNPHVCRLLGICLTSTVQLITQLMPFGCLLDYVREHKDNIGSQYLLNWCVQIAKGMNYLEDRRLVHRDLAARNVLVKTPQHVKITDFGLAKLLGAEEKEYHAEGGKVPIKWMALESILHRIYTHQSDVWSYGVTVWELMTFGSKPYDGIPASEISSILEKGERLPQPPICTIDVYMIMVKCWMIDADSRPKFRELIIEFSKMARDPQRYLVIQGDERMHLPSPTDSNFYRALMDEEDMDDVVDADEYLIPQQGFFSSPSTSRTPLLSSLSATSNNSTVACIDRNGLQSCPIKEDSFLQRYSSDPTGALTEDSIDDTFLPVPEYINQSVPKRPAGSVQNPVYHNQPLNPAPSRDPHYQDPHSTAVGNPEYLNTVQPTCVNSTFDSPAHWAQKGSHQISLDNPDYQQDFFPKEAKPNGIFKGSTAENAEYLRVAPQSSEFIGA

SMILES	IC50 (EGFR Δ746-750 mutant) [nM]	IC50 (CLK1) [nM]	IC50 (EGFR WT) [nM]	IC50 [1] [nM]	IC50 (EGFR (D770_N771insNPG)) [nM]	IC50 (EGFR L858R/T790M mutant) [nM]	IC50 (CLK4) [nM]	IC50 (CLK2) [nM]	IC50 (EGFR L858R mutant) [nM]	IC50 (CLK3) [nM]	IC50 [2] [nM]
CC(C)Oc1nn(CCO)c2c1/C=C/c1n[nH]c3ccc(cc13)-c1cnn(C)c1O[C@@H](C)C(=O)N(C)C2 [Example 220, (10S,17E)-14-(2-hydroxyethyl)-8,10,12-trimethyl-16-[(propan-2-yl)oxy]-2,12,13,14-tetrahydro-8H-3,5-ethenotripyrazolo[3,4-f:3′,4′-j:4″,3″- n][1,4]oxazacyclopentadecin-11(10H)-one]	398	2.76	1440	475	575	23.1	4.31	8.84	515	1	27.5
COCc1nn(CCO)c2c1/C=C/c1n[nH]c3ccc(cc13)-c1cnn(C)c1O[C@@H](C)CN(C)C2 [Example 261, 2-[(10S,17E)-16-(methoxymethyl)-8,10,12-trimethyl-2,8,10,11,12,13-hexahydro-14H-3,5-ethenotripyrazolo[3,4-f:3′,4′-j:4″,3″-n][1,4]oxazacyclopentadecin-14-yl]ethan-1-ol]	23.5	0.2	93.7	5.93	230	1.92	0.44	0.33	21.6	209	5.1
Cc1nn(CCO)c2c1/C=C/c1n[nH]c3cc(Cl)c(cc13)-c1cnn(C)c1O[C@@H](C)CN(C)C2 [Example 125, 2-[(10S,17E)-19-chloro-8,10,12,16-tetramethyl-2,8,10,11,12,13-hexahydro-14H-3,5-ethenotripyrazolo[3,4-f:3′,4′-j:4″,3″-n][1,4]oxazacyclopentadecin-14-yl]ethan-1-ol]	20.6	3.44	138	4.99	175	43.6	4.31	2.81	11.9	1000	7.49
CCOc1nn(CCO)c2c1/C=C/c1n[nH]c3ccc(cc13)-c1cnn(C)c1O[C@@H](C)CN(C(C)C)C2 [Example 151, 2-[(10S,17E)-16-ethoxy-8,10-dimethyl-12-(propan-2-yl)-2,8,10,11,12,13-hexahydro-14H-3,5-ethenotripyrazolo[3,4-f:3′,4′-j:4″,3″-n][1,4]oxazacyclopentadecin-14-yl]ethan-1-o]	0.3	0.24	0.87	0.72	2.55	0.48	0.52	0.04	0.22	23	0.46
CCn1ncc2c1O[C@@H](C)CN(C)Cc1c(c(OC(C)C)nn1CCO)/C=C/c1n[nH]c3ccc-2cc13 [Example 169, 2-{(10S,17E)-8-ethyl-10,12-dimethyl-16-[(propan-2-yl)oxy]-2,8,10,11,12,13-hexahydro-14H-3,5-ethenotripyrazolo[3,4-f:3′,4′-j:4″,3″- n][1,4]oxazacyclopentadecin-14-yl}ethan-1-ol]	3.24	0.47	19.3	1.6	36.1	0.48	1.13	0.49	2.01	346	1.26
CCc1noc2c1/C=C/c1n[nH]c3ccc(cc13)-c1cnn(C)c1O[C@@H](C)CN(C)C2 [Example 174, (10S,17E)-16-ethyl-8,10,12-trimethyl-2,8,10,11,12,13-hexahydro-3,5-etheno[1,2]oxazolo[5,4-f]dipyrazolo[3,4-j:4′,3′-n][1,4]oxazacyclopentadecine]	133	0.16	752	27.2	996	10.9	0.51	0.21	127	128	4.88
C[C@H]1CN(C)Cc2c(c(OC3CC(S(C)(=O)=O)C3)nn2C)/C=C/c2n[nH]c3ccc(cc23)-c2cnn(C)c2O1 (stereo partly drawn) [Example 187, (10S,17E)-16-{I3-(methanesulfonyl)cyclobutyl|oxy}-8,10,12,14-tetramethyl-2,10,11,12,13,14-hexahydro-8H-3,5-ethenotripyrazolo[3,4-f:3′,4′-j:4″,3″-n][1,4]oxazacyclopentadecine]	8.88	0.48	25.9	7.84	74.7	0.47	1.35	0.3	6.88	311	0.33
CCOc1nn(C)c2c1/C=C/c1n[nH]c3cc(F)c(cc13)-c1cnn(C)c1O[C@@H](C)CN(CC)C2 [Example 206, (10S,17E)-16-ethoxy-12-ethyl-19-fluoro-8,10,14-trimethyl-2,10,11,12,13,14-hexahydro-8H-3,5-ethenotripyrazolo[3,4-f:3′,4′-j:4″,3″-n][1,4]oxazacyclopentadecine]	0.76	1.67	3.33	0.74	43.5	0.52	3.69	1.72	1.69	477	1.46
CSCn1ncc2c1O[C@@H](C)CN(C(C)C)Cc1c(c(C)nn1C)/C=C/c1n[nH]c3ccc-2cc13 [Example 164, (10S,17E)-10,14,16-trimethyl-8-[(methylsulfanyl)methyl]-12-(propan-2-yl)-2,10,11,12,13,14-hexahydro-8H-3,5-ethenotripyrazolo[3,4-f:3′,4′-j:4″,3″-n][1,4]oxazacyclopentadecine]	33.4	0.39	220	20.2	95.3	3.23	0.59	0.75	16.7	1000	1.76
CCOc1nn([C@@H](C)CO)c2c1/C=C/c1n[nH]c3ccc(cc13)-c1cnn(C)c1O[C@@H](C)CN(C)C2 [Example 155]	0.62	0.43	1.74	0.86	6.36	0.45	0.81	0.14	0.34	87.4	0.62
Cc1nn(C)c2c1/C=C/c1n[nH]c3ccc(cc13)-c1cnn(C)c1O[C@@H]1CCCN(C2)C1 [Example 122, (10R,19E)-8,16,18-trimethyl-2,8,10,11,12,13,15,16-octahydro-3,5-etheno-10,14-methanotripyrazolo[3,4-h:3′,4′-l:4″,3″-p][1,6]oxazacycloheptadecine]	7.45	0.27	94.2	6.79	58	1.46	0.6	0.15	11.9	21.2	2.09
CC(C)Oc1nn(CCO)c2c1/C=C/c1n[nH]c3ccc(cc13)-c1cnn(C)c1OCC(CF)N(C)C2 (stereo not drawn) [Example 226, 2-{(17E)-11-(fluoromethyl)-8,12-dimethyl-16-[(propan-2-yl)oxy]-2,8,10,11.12,13-hexahydro-14H-3,5-ethenotripyrazolo[3,4-f:3′,4′-j:4″,3″-n][1,4]oxazacyclopentadecin-14-yl}ethan-1-ol]	8.98	0.87	121	6.43	222	1.19	1.44	0.99	50.7	369	0.6
